From patent US6858621B2, “2-(quinolonyl)-fused heterocycles as androgen receptor modulators” (Ortho-McNeil Pharmaceutical, Inc., priority 2002, dated 2005)

Target: T1, androgen receptor LBD (Panvera) (Rattus norvegicus, UniProt P15207)
T1 construct: 5 pmol androgen receptor LBD (Panvera); purchased Panvera
T1 sequence (P15207 651-882 limits assumed): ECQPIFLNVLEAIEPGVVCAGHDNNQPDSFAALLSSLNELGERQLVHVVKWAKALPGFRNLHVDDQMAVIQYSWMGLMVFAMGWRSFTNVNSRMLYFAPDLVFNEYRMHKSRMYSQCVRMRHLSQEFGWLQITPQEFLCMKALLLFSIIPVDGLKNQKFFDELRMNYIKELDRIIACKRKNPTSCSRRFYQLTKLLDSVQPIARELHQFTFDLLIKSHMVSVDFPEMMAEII
Test: Androgen Receptor Filtration Binding Assay (Panvera receptor)
Settings: Panvera receptor data; 0.5 nM [3H] R1881 tracer
Description: In Vitro Assay—Androgen Receptor Filtration Binding Assay
The assay was run on a 96 well plate with each well filled with total reaction volume 150 μL, of a solution containing 5 pmol androgen receptor LBD (Panvera) or […] of freshly prepared rat cytosol, 0.5 nM [^3H] R1881 tracer (NEN), 1.5 μL (10 μM) test compound or vehicle (diluted in 30% DMSO, final concentration of DMSO 0.75%) and […] of TED buffer. (TED buffer contains 10 mM Tris.HCl pH 7.4, 1 mM sodium molybdate (60 mg/250 mL), 1.5 mM EDTA, 1 mM DTT and 10% (v/v) glycerol.)
On day one, the solution containing receptor, tracer and TED buffer was distributed onto a 96 well plate. Diluted test compound or control vehicle was then added to individual wells and the plate incubated ay 4° C. overnight.
On day two, to each well was then added 20 μL human γ-globulin (ICN 823102), prepared at 25 mg/ml in TE pH 8.0 and 55 μL 40% polyethylene glycol 8000 (J T Baker U222-08), prepared in TE pH 8.0. […] The plate wells were then counted on a TopCount (Packard).
Representative compounds of the present invention were tested for binding to the androgen receptor according to the procedure described above with results as listed in Table 3. % Inhibition values less that 0% indicate no binding at the […] level. The negative number(s) are a result of experimental error from the low number of counts detected.

Compound	IC50 [µM]
O=c1cc(C(F)(F)F)c2c3c(ccc2[nH]1)OCCO3 [compound 1]	5.2
O=c1cc(C(F)(F)F)c2c3c(ccc2[nH]1)OC(F)(F)C(F)(F)O3 [compound 2]	4.8
